Here are results for 4 substances from PMC3830869, “Total Chemical Synthesis of a Heterodimeric Interchain Bis-Lactam-Linked Peptide: Application to an Analogue of Human Insulin-Like Peptide 3” (International Journal of Peptides, 2013).

Numbered stars: 1 amine (or outer) side, 2 acyl side, 3 side chain; on linkers, the order of the positions; unused ones are H or OH. Bridge positions count the residues as written; N and C are the ends. Square brackets hold non-standard residues; d marks the D form. Ends that are not written are not given here. I, II: the chains in the order shown. βAsp = O=C(O)[C@H](CC(=O)[*:2])N[*:1]; Dap = NC[C@H](N)C(=O)O

For assay [1], the target named is T1, RXFP2 (Homo sapiens, UniProt Q8WXD0). The assay is described as follows: RXFP2 competition binding assay with europium-labelled INSL3. On the set-up: expressed in transfected cells; host or cells: HEK-293T. The conditions noted are these: competition with 0.3 nM europium-labelled INSL3, unlabelled peptide 0.01 nM–1 μM; HEK-293T cells stably transfected with RXFP2; mean ± SEM; n in parentheses in Table 1 (6 for human INSL3, 3 for the analogues); read-out: Receptor binding pKi (converted).
T1 sequence (Q8WXD0 whole entry): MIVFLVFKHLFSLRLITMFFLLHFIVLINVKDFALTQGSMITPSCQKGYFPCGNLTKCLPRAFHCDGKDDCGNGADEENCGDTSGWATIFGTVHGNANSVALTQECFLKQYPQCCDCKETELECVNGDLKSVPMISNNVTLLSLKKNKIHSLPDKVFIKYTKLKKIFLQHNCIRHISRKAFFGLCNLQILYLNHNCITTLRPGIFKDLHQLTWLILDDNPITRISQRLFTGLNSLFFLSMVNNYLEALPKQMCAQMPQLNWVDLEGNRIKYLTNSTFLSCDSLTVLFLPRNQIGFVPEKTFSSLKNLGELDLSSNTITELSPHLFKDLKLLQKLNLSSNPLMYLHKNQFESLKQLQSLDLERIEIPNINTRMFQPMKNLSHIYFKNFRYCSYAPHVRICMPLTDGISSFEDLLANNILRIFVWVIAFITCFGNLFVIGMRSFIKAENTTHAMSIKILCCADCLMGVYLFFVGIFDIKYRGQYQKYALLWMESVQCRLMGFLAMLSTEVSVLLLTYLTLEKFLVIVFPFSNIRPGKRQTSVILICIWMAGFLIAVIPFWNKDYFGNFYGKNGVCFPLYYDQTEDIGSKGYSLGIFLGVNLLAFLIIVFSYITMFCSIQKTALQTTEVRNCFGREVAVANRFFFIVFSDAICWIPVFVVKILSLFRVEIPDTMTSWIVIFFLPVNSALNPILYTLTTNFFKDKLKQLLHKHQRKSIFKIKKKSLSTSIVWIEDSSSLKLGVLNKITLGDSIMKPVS

For assay [2], the target named is T1, RXFP2. On the set-up: expressed in transfected cells. The conditions noted are these: data for entry 2 taken from the reference; n = 3; ref [32]; cited from earlier work. From the text:
Table 1 Receptor binding affinities (pKi) of INSL3 and analogues. Data for entry 2 taken from reference. | column: Receptor binding pKi (n=) || Moreover, to date, there have been no reports of a chemical synthesis of a bis-lactam cross-linked heterodimeric peptide. Consequently, in this study, we undertook an examination of the feasibility of a total step-wise synthesis of, first, a monolactam A24-B22 analogue and, subsequently, a bis-lactam A11-B10/A24-B22 analogue of INSL3. Our novel strategy involved the continuous assembly of both the A- and B-chains, plus the lactam bridges on the same solid support, that is, without using preformed peptide fragments. In order to simplify assembly, the C-terminus of the A-chain was truncated at p ... || Both the ΔA25/26 human INSL3 monolactam A24-B22 and bis-lactam A11-B10/A24-B22 analogues were tested in the RXFP2 competition binding assay (Table 1).

As to “I: PTPEMREKLCGHHFVRALVRVCGGPRWSTEA / II: AAATNPARYCCLSGCTQQDLLTLCPY (disulfide I:10-II:11, I:22-II:24, II:10-II:15) [Human INSL3]”, the Ki at RXFP2 [1] is 0.575 nM.

On to “I: PTPEMREKL[Dap]GHHFVRALVRV[Dap]GGPRWSTEA / II: AAATNPARYCDLSGCTQQDLLTL[βAsp] (amide I:10-II:11, I:22-II:C; disulfide II:10-II:15)”, for which the Ki on RXFP2 [1] is 12 nM.

Regarding “ΔA25/26 human INSL3: INSL3 analogue, C-terminus of the A-chain truncated at position 24, omitting Pro A25 and Tyr A26 (chain 1 AAATNPARYCCLSGCTQQDLLTLC; chain 2 PTPEMREKLCGHHFVRALVRVCGGPRWSTEA; Disulfides A10-A15 (intra-A), A11-B10 and A24-B22 (interchain); A-chain is A1-A24 (Pro A25 and Tyr A26 omitted); B-chain is 31 residues ending in Ala; Ch)”, the “Receptor binding pKi” value in the assay with RXFP2 [2] is listed as 8.59 ± 0.06 (3).

As for “I: PTPEMREKLCGHHFVRALVRV[Dap]GGPRWSTEA / II: AAATNPARYCCLSGCTQQDLLTL[βAsp] (disulfide I:10-II:11, II:10-II:15; amide I:22-II:C) [ΔA25/26 human INSL3 mono-lactam A24-B22]”, on RXFP2 [1], the Ki was 4.47 nM.
